Data taken from publication PMC8126888 (RSC Medicinal Chemistry, 2020).
Like-named read-outs stand apart in the source and are kept apart here.

Key:
[1] = system: primary peritoneal mouse macrophages (PMM); experiment: cells; settings: Macrophage
in vitro [2] = settings: human, microsomes
in vitro [3] = settings: mouse, microsomes
[4] = system: Leishmania infantum MHOM/MA(BE)/67/ITMAP263 intracellular amastigotes; experiment: microbe, parasite or virus in culture; settings: Macrophage, in Mus musculus
[5] = system: Trypanosoma cruzi, Tulahuen CL2, beta-galactosidase strain; experiment: microbe, parasite or virus in culture; settings: MRC5, read-out: T. cruzi Tulahuen C4 (LacZ) IC50 (uM)
in vitro [6] = settings: human
in vitro [7] = settings: human, HepG2 cells
in vitro [8] = settings: human, HFF-1 cells
[9] = system: Leishmania infantum MHOM/MA(BE)/67/ITMAP263 intracellular amastigotes; settings: intracellular amastigotes in PMM
[10] = read-out: PMM pIC50 (converted)
[11] = pH 7.4, Microsome Clint Human, intrinsic in vitro clearance, liver microsomes
[12] = pH 7.4, Microsome Clint Mouse, intrinsic in vitro clearance, liver microsomes
[13] = read-out: L. inf. pIC50, intracellular amastigotes in PMM (converted), geometric mean of a minimum of two experiments ± standard error
[14] = HPLC, Ascentis Express RP Amide column, pH 7.4, eLogD, experimental
[15] = read-out: L. Inf. pIC50, from L. infantum intracellular amastigote IC50 (converted)
[16] = read-out: L. infantum MHOM/MA(BE)/67/ITMAP263 intracellular amastigotes IC50 (uM), intracellular amastigotes
[17] = HPLC, Ascentis Express RP Amide column, pH 7.4, elog D, HPLC measured log D, pH 7.4
[18] = pH 7.4, Microsome Clint,u Human, Table 2, intrinsic in vitro clearance, liver microsomes
[19] = pH 7.4, Microsome Clint,u Mouse, Table 2, intrinsic in vitro clearance, liver microsomes

In the case of `Cn1cccc(S(=O)(=O)N(Cc2ccc(F)cc2)Cc2ccc(F)cc2)c1=O` [Compound 31], the chromatographic logD (physchem; pH 7.4, elog D, HPLC measured log D, pH 7.4) is reported as 3.7, the IC50 [1, 10] is reported as greater than 64 µM and the microsomal CLint at 0.5 h, 0.5 µM (in vitro [2]; [11]) is reported as 676 µL/min/mg. It also gave a microsomal CLint at 0.5 h, 0.5 µM (in vitro [3]; [12]) of 2450 µL/min/mg and an IC50 [4, 13] of 20.9 µM.

`COc1ccc(CN(Cc2ccc(F)cc2)S(=O)(=O)c2cc(OC)ccc2OC)cc1` [DNDI0003388087] showed an IC50 [5] of 9.04 µM, a CC50 at 3 days (in vitro [6]) of 5.42 µM and a CC50 (in vitro [7]) of 33.2 µM. It also gave a CC50 (in vitro [8]) of 2.44 µM, a chromatographic logD (physchem; [14]) of 3.5 and an IC50 ([1]; read-out: PMM IC50 (uM)) greater than 64 µM. It also gave a microsomal CLint at 0.5 μM (in vitro [2]; pH 7.4, HLM CLint (uL/min/mg), human liver microsomes) of 80 µL/min/mg, a microsomal CLint at 0.5 μM (in vitro [3]; pH 7.4, MLM CLint (uL/min/mg), mouse liver microsomes) of 19 µL/min/mg and an IC50 [4, 15] of 11.2 µM. It also gave an IC50 [4, 16] of 11.3 µM.

With `COc1ccc(C(N)=O)cc1S(=O)(=O)N(Cc1ccccc1)Cc1ccccc1` [Compound 21] the chromatographic logD (physchem; [17]) was 3.6, the IC50 [1, 10] was greater than 64.6 µM and the microsomal CLint at 0.5 μM (in vitro [2]; [11]) was 108 µL/min/mg. For the same compound, the microsomal CLint at 0.5 μM (in vitro [3]; [12]) was 1670 µL/min/mg and the IC50 [4, 13] was 7.41 µM.

In the case of `COc1ccc(OC)c(S(=O)(=O)N(Cc2ccc(F)cc2)Cc2ccnn2C)c1` [Compound 35], the chromatographic logD (physchem; [17]) is reported as 3.5, the IC50 [1, 10] is reported as 45.7 µM and the microsomal CLint at 0.5 h, 0.5 µM (in vitro [2]; [18]) is reported as 651 µL/min/mg. For the same compound, the microsomal CLint at 0.5 μM (in vitro [3]; [19]) was 5480 µL/min/mg and the IC50 [4, 13] was 5.25 µM.

In the case of `COCCN(Cc1ccc(F)cc1)S(=O)(=O)c1cc(C#N)ccc1OC` [Compound 41], the chromatographic logD (physchem; [17]) is reported as 3.4, the IC50 [1, 10] is reported as greater than 64.6 µM and the microsomal CLint at 0.5 μM (in vitro [2]; [18]) is reported as less than 23 µL/min/mg. It also gave a microsomal CLint at 0.5 h, 0.5 µM (in vitro [3]; [19]) of 585 µL/min/mg and an IC50 [4, 13] of 8.91 µM.

Compound `COc1ccc(C(=O)N2CCOCC2)cc1S(=O)(=O)N(Cc1ccccc1)Cc1ccccc1` [Compound 22] has a chromatographic logD (physchem; [17]) of 3.8, an IC50 [1, 10] of 45.7 µM and a microsomal CLint at 0.5 μM (in vitro [2]; [11]) of 810 µL/min/mg. The microsomal CLint at 0.5 h, 0.5 µM (in vitro [3]; [12]) was 2020 µL/min/mg and the IC50 [4, 13] was 0.457 µM.

With `COc1ccc(C#N)cc1S(=O)(=O)N(Cc1ccc(F)cc1)C1CCOCC1` [Compound 43] the “potency against L. inf. in words” value [9] was “inactive”, the chromatographic logD (physchem; [17]) was 3.4 and the IC50 [1, 10] was greater than 64.6 µM. For the same compound, the microsomal CLint at 0.5 μM (in vitro [2]; [18]) was 194 µL/min/mg, the microsomal CLint at 0.5 μM (in vitro [3]; [19]) was 253 µL/min/mg and the IC50 [4, 13] was greater than 64.6 µM.

With `COc1ccc(OC)c(S(=O)(=O)N(Cc2ccccc2)Cc2ccccc2)c1` [Compound 9] the chromatographic logD (physchem; [17]) was 4.6, the IC50 [1, 10] was greater than 64.6 µM and the microsomal CLint at 0.5 μM (in vitro [2]; [11]) was 242 µL/min/mg. For the same compound, the microsomal CLint at 0.5 μM (in vitro [3]; [12]) was 1300 µL/min/mg and the IC50 [4, 13] was 0.372 µM.

In the case of `COc1ccc([S+](C)[O-])cc1S(=O)(=O)N(Cc1ccccc1)Cc1ccccc1` (stereo not shown) [Compound 28], the chromatographic logD (physchem; [17]) is reported as 3.5, the IC50 [1, 10] is reported as greater than 64.6 µM and the microsomal CLint at 0.5 h, 0.5 µM (in vitro [2]; [11]) is reported as 233 µL/min/mg. The microsomal CLint at 0.5 h, 0.5 µM (in vitro [3]; [12]) was 929 µL/min/mg and the IC50 [4, 13] was 0.589 µM.

For `O=S1(=O)c2cc(F)ccc2OCC(c2ccc(F)cc2)N1Cc1ccccc1` (stereo not shown) [DNDI0003389122], the IC50 [5] was greater than 64 µM, the CC50 at 3 days (in vitro [6]) was greater than 64 µM and the CC50 (in vitro [7]) was greater than 64 µM. For the same compound, the CC50 (in vitro [8]) was 12.1 µM, the chromatographic logD (physchem; [14]) was 4.9 and the IC50 ([1]; read-out: PMM IC50 (uM)) was 16 µM. The IC50 [4, 15] was 10.2 µM and the IC50 [4, 16] was 10.2 µM.

With `N#Cc1ccc(O)c(S(=O)(=O)N(Cc2ccc(F)cc2)Cc2ccc(F)cc2)c1` [Compound 16] the chromatographic logD (physchem; [17]) was 3.7, the IC50 [1, 10] was 45.7 µM and the microsomal CLint at 0.5 h, 0.5 µM (in vitro [2]; [11]) was 27.4 µL/min/mg. For the same compound, the microsomal CLint at 0.5 h, 0.5 µM (in vitro [3]; [12]) was 1100 µL/min/mg and the IC50 [4, 13] was 30.9 µM.

Compound `COCCN(Cc1ccc(F)cc1)S(=O)(=O)c1cc(C(=O)N2CCOCC2)ccc1OC` [Compound 42] has a chromatographic logD (physchem; [17]) of 2.9, an IC50 [1, 10] greater than 64.6 µM and a microsomal CLint at 0.5 μM (in vitro [2]; [18]) of 28 µL/min/mg. The microsomal CLint at 0.5 μM (in vitro [3]; [19]) was 60 µL/min/mg and the IC50 [4, 13] was 43.7 ± 0.601 µM.

Work on `COc1ccc(OC)c(S(=O)(=O)N(Cc2ccc(F)cc2)Cc2cnc(OC)nc2OC)c1` [Compound 34] yielded a chromatographic logD (physchem; [17]) of 3.8, an IC50 [1, 10] greater than 64.6 µM and a microsomal CLint at 0.5 h, 0.5 µM (in vitro [2]; [18]) of 498 µL/min/mg. The microsomal CLint at 0.5 h, 0.5 µM (in vitro [3]; [19]) was 3150 µL/min/mg and the IC50 [4, 13] was 53.7 µM.

`COc1ccc(C(=O)N2CCOCC2)cc1S(=O)(=O)N(Cc1ccc(F)cc1)CC(C)C` [Compound 44] showed a chromatographic logD (physchem; [17]) of 3.6, an IC50 [1, 10] greater than 64.6 µM and a microsomal CLint at 0.5 h, 0.5 µM (in vitro [2]; [18]) of 1050 µL/min/mg. For the same compound, the microsomal CLint at 0.5 h, 0.5 µM (in vitro [3]; [19]) was 1400 µL/min/mg and the IC50 [4, 13] was 6.92 µM.
